Experimental data taken from patent US11091445B2, “Compounds, process for obtaining the compounds, pharmaceutical composition, use of the compounds and method for treating psychiatric disorders and/or sleep disorders” (Aché Laboratórios Farmacêuticos S.A., priority 2016, dated 2021).

Tests used:
MT2 receptor = MT2 receptor (Homo sapiens (Human), UniProt P49286); test: MT2 functional assay; assay type: cell-based
[1] = tested on: cryopreserved human hepatocytes; test: Intrinsic clearance in cryopreserved human hepatocytes; assay type: in vitro ADME; settings: 37° C.
Description: (§1) Cryopreserved hepatocytes from humans, rats (Sprague-Dawley males) and from mice (CD-1 males) were used for incubation at different times (0, 0.5, 1, 1.5, 2 hours) at 37° C. followed by HPLC-MS/MS detection. The aim was to verify the clearance time of the test substance on hepatocytes. The experiment was performed on a 96-well plate and the cryopreserved hepatocytes were thawed and resuspended in Krebs-Heinslet buffer (pH 7.3). The reaction was started by adding each test compound to each cell suspension and performing the incubation at the times indicated above. The reaction was quenched with addition of acetonitrile in the wells and detection by HPLC-MS/MS (mass spectrometry). MS/MS is performed by combining two mass detectors into a single instrument.

[2] = tested on: cryopreserved hepatocytes from rats (Sprague-Dawley males); test: Intrinsic clearance in cryopreserved rat hepatocytes; assay type: in vitro ADME; settings: 37° C.
Description: as §1

[3] = tested on: cryopreserved hepatocytes from mice (CD-1 males); test: Intrinsic clearance in cryopreserved mouse hepatocytes; assay type: in vitro ADME; settings: 37° C.
Description: as §1

CYP1A2 [4] = molecular target: T1, CYP1A2 (Homo sapiens (Human), UniProt P05177); test: CYP inhibition, fluorogenic substrate; assay type: in vitro ADME
T1 sequence (P05177 whole entry): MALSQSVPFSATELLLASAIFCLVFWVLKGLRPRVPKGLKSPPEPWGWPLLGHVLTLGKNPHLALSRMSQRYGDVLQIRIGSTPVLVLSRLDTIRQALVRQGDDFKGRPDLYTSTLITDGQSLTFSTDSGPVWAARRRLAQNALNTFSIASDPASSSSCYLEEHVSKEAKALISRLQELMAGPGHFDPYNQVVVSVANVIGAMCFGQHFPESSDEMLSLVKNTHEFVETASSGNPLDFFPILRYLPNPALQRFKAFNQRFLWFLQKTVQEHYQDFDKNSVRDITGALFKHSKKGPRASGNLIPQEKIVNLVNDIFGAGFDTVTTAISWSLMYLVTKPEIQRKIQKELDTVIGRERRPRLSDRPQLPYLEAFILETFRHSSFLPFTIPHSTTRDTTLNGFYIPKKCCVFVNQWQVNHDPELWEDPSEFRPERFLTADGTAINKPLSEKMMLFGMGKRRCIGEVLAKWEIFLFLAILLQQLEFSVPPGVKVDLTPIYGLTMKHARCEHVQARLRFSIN
Source text: The CYP inhibition test used fluorogenic substrates specific to each CYP to check for inhibition thereof by detection of the expected metabolite using a fluorimetric method. Recombinant CYPs (CYP2B6, CYP2C8, CYP2C9, CYP2C9, CYP2C19, CYP2D6, CYP3A4) from specific humans for each cytochrome family, subfamily and polypeptide were used. The following were used as substrates: CEC (3-Cyano-7-Ethoxycoumarin) which forms as metabolite CHC (3-Cyano-7-Hydroxycoumarin); EFC (7-Ethoxy-4-trifluoromethyl coumarin), forming the metabolite HFC (7-Hydroxytrifluoromethylcoumarin); DBF (Dibenzylfluorescein) and its respective fluorescein metabolite; MFC (7-Methoxy-4-trifluoromethylcoumarin) which forms the metabolite HFC (7-Hydroxytrifluoromethylcoumarin); BFC (7-Benzyloxy-Trifluoromethylcoumarin) and its metabolite HFC; and BzRes (benzyloxyresorufin) to form resofurine. The detection of the metabolite was done with a fluorimetric method: analytical technique to identify and characterize the amount of substance by excitation using a beam of ultraviolet light and measurement of the emitted fluorescence. For detection, a 96-well plate was used. […] Incubations were performed between 20-50 minutes at 37° C. according to the specific parameter of each fluorogenic substrate, for the evaluated component. Fluorescence at each well was detected before and after the incubation period.

CYP2C9 and CYP2C19 = settings: cited from earlier work
CYP1A2 [5] = molecular target: T1, CYP1A2; settings: cited from earlier work
MT1 receptor = MT1 receptor (Homo sapiens (Human), UniProt P48039); test: MT1 functional assay
Chain of MT1 receptor (P48039 whole entry): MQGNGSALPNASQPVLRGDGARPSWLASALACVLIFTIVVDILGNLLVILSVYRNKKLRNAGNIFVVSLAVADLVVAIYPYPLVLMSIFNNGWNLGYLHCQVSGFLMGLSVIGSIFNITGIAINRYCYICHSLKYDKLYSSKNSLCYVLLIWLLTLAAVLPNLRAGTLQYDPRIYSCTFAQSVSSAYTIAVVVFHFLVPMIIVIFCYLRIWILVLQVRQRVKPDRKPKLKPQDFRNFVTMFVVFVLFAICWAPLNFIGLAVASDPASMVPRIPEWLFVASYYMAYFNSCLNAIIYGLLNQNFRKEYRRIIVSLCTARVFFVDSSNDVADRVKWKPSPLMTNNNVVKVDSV

[6] = Pharmacokinetics in CD-1 mouse, I.V. and oral; assay type: in vivo; settings: intravenous
Description: PK tests were performed with CD-1 mice, using 4 animals per molecule tested, 2 animals for pharmacokinetic analysis by intravenous (IV) administration and 2 animals for oral administration. The treatment was carried out in a single dose: I.V. group with dose of 1 mg/kg and Oral group with dose of 10 mg/kg. […] Blood collection was performed after euthanasia at 08 defined time points and at 24 hours post-dose. The pharmacokinetic analysis parameters detected for Group IV were: half-life (t½), drug concentration at time zero (C0), last measurable plasma concentration (AUClast), area under the plasma concentration curve extrapolation percentage (AUC % ext), area under the plasma concentration curve extrapolation to infinity (AUCinf), volume of distribution (Vz), steady state volume of distribution (Vss), clearance (CL) and mean residence time (MRT). The parameters evaluated for the Oral group were: bioavailability (F %), maximum concentration reached (Cmax), time to reach maximum plasma concentration (Tmax), last measurable plasma concentration (AUClast), area under the plasma concentration curve extrapolation percentage (AUC % ext), area under the plasma concentration curve extrapolation to infinity (AUCinf), area under the plasma concentration curve extrapolation to infinity versus dose (AUCinf/Dose), half-Life (t½), and mean residence time (MRT).

melatonin receptors = settings: literature (Depreux et al. 1994); cited from earlier work

Chain of MT2 receptor (P49286 whole entry): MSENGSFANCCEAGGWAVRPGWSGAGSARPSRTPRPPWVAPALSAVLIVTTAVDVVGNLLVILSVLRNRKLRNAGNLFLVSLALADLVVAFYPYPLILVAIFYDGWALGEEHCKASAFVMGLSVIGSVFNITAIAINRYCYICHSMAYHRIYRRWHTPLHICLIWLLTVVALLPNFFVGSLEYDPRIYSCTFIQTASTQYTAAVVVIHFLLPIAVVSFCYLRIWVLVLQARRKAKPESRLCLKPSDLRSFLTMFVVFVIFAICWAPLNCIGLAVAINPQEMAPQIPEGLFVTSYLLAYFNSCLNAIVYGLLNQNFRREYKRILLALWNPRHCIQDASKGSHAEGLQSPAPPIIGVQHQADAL

Row | Structure (SMILES) | intrinsic activity at MT2 (MT2 receptor) | Intrinsic clearance half-life, Human hepatocytes [1] | Intrinsic clearance half-life, Rat Sprague-Dawley hepatocytes [2] | Intrinsic clearance half-life, Mouse CD-1 hepatocytes [3] | affinity to CYP isoforms, specially CYP1A2 (CYP1A2 [4]) | fraction metabolized by CYP2C9 and CYP2C19 (CYP2C9 and CYP2C19) | fraction metabolized in the liver by CYP1A2 (CYP1A2 [5]) | intrinsic activity at MT1 (MT1 receptor) | C0 compared to agomelatine [6] | Clearance compared to agomelatine [6] | affinity lower than melatonin affinity (melatonin receptors)
1 | COc1ccc2cccc(CCNC(C)=O)c2c1 [IA2-76 (agomelatine), agomelatine] | agonist | 0.8 h | 0.833 h | 0.417 h | high affinity | 10% | Around 90% | agonist | – | – | –
2 | CCOc1nc2ccc(OC)cc2n1CCCNC(C)=O [IA2-120] | – | >2 h | 0.883 h | >2 h | – | – | – | – | higher | lower | –
3 | CCOc1nc2cc(Cl)c(OC)cc2n1CCNC(C)=O [IA2-121] | – | >2 h | 0.867 h | >2 h | – | – | – | – | higher | lower | –
4 | CCOc1nc2cc(Cl)c(OC)cc2n1CCCNC(C)=O [IA2-142] | – | >2 h | >2 h | >2 h | – | – | – | – | higher | lower | –
5 | COc1cc2c(cc1Cl)nc(OC)n2CCNC(C)=O [IA2-143] | – | – | 1.8 h | – | – | – | – | – | higher | lower | –
6 | COc1ccc2ncn(CCNC(C)=O)c2c1 [N-[2-(6-methoxybenzimidazol-1-yl)-ethyl]acetamide] | – | – | – | – | – | – | – | – | – | – | approximately 3,200 times
